Results: paper PMC12644462, “A novel radiosensitizer α-sulfoquinovosyl-acylpropanediol (SQAP) inhibits DNA repair pathways and sensitize cells to cancer chemotherapeutic agents” (Scientific Reports, 2025)
Where a name gives a salt, the structure may show the parent alone. Read-outs that look alike come from different tables or passages of the source.

Columns and labels:
CML-6M and STSA-1 cells = experiment: Colony formation assay, chemosensitization by SQAP (qualitative); type: cell-based, canine; settings: for sensitization of chemotherapeutic agent by SQAP: combined with 30 µM SQAP
Procedure: Sensitivity to radiation or chemical reagents was assessed through colony formation assays. After trypsinized single cells were plated to form 20–200 colonies per dish and then treated with SQAP for 3 h in normoxia or hypoxia, the cells were irradiated. For drug sensitivity study, trypsinized cells were plated and then treated with various dosage of testing agents. After seven days of incubation, colonies were fixed, stained and scored. Regression curves were drawn from survival fraction, and D10 values (doses to achieve 10% cell survival) were calculated by Prism 8 (GraphPad software, San Diego, CA, USA) from at least three independent experiments. Oxygen enhancement ratio (OER) and sensitization enhancement ratio (SER) values were calculated from D10 values. OER values were calculated from the D10 value in hypoxia divided by the D10 value in normoxic condition. SER values were calculated from the D10 value without SQAP divided by the D10 value with SQAP.

[1] = test system: Chinese hamster V79 cells; experiment: Colony formation assay, radio- and chemosensitization; type: cell-based
Procedure: For hypoxia irradiation, cell cultures were placed in Aneropak Kenki system (Mitsubishi Gas Chemical, Tokyo, Japan) with oxygen meter to confirm pO2 below 0.1%. Cells were kept in hypoxia for 3 h before irradiation.

STSA-1 cells = experiment: Colony formation assay, drug sensitivity with SQAP; type: cell-based, canine
Procedure: (§1) Sensitivity to radiation or chemical reagents was assessed through colony formation assays. After trypsinized single cells were plated to form 20–200 colonies per dish and then treated with SQAP for 3 h in normoxia or hypoxia, the cells were irradiated. For drug sensitivity study, trypsinized cells were plated and then treated with various dosage of testing agents. After seven days of incubation, colonies were fixed, stained and scored[24]. Regression curves were drawn from survival fraction, and D10 values (doses to achieve 10% cell survival) were calculated by Prism 8 (GraphPad software, San Diego, CA, USA) from at least three independent experiments. Oxygen enhancement ratio (OER) and sensitization enhancement ratio (SER) values were calculated from D10 values. OER values were calculated from the D10 value in hypoxia divided by the D10 value in normoxic condition. SER values were calculated from the D10 value without SQAP divided by the D10 value with SQAP.

CML-6M cells = experiment: Colony formation assay, drug sensitivity with SQAP; type: cell-based, canine
Procedure: as §1

O=NN(CCCl)C(=O)NC1CCCCC1 [lomustine]
sensitization of chemotherapeutic agent by SQAP (CML-6M and STSA-1 cells): no sensitization

CC[C@@]1(O)C(=O)OCc2c1cc1n(c2=O)Cc2cc3ccccc3nc2-1 [camptothecin, Camptothecin]
effect of SQAP on cytotoxicity of the agent ([1]; V79, 10 and 20 µM SQAP): increased the cytotoxicity
change of D10 value of the agent with SQAP treatment ([1]; V79, P < 0.05): significant reduction

CC(=O)O[C@H]1C(=O)[C@@]2(C)[C@H]([C@H](OC(=O)c3ccccc3)[C@]3(O)C[C@H](OC(=O)[C@H](O)[C@@H](NC(=O)c4ccccc4)c4ccccc4)C(C)=C1C3(C)C)[C@]1(OC(C)=O)CO[C@@H]1C[C@@H]2O [Taxol]
effect of SQAP on cytotoxicity of the agent [1]: increased the cytotoxicity

COS(C)(=O)=O [MMS, methyl methanesulfonate]
effect of SQAP on cytotoxicity of the agent [1]: increased the cytotoxicity

N.N.[Cl][Pt][Cl] [cisplatin]
change of D10 value of the agent with SQAP treatment ([1]; V79, P < 0.05): significant reduction

CO[C@@]12[C@H](COC(N)=O)C3=C(C(=O)C(C)=C(N)C3=O)N1C[C@@H]1N[C@@H]12 [MMC, Mitomycin C]
effect of SQAP on cytotoxicity of the agent ([1]; V79, 10 and 20 µM SQAP): increased the cytotoxicity

bleomycin
change of D10 value of the agent with SQAP treatment [1]: significant reduction
sensitization to bleomycin by SQAP [1]: sensitized and not

COc1cc([C@@H]2c3cc4c(cc3[C@@H](O[C@@H]3O[C@@H]5CO[C@@H](C)O[C@H]5[C@H](O)[C@H]3O)[C@H]3COC(=O)[C@H]23)OCO4)cc(OC)c1O [etoposide]
effect of SQAP on cytotoxicity of the agent [1]: increased the cytotoxicity

C[C@]12C=CC(=O)C=C1CC[C@@H]1[C@@H]2[C@@H](O)C[C@@]2(C)[C@H]1CC[C@]2(O)C(=O)CO [prednisolone]
cytotoxicity (D10 not available) (CML-6M and STSA-1 cells; colony formation): low cytotoxicity
sensitization of chemotherapeutic agent by SQAP (CML-6M and STSA-1 cells): no sensitization

O=C(O)CCCc1ccc(N(CCCl)CCCl)cc1 [chlorambucil, Chlorambucil]
sensitization of chemotherapeutic agent by SQAP (CML-6M and STSA-1 cells): no sensitization

COc1cccc2c1C(=O)c1c(O)c3c(c(O)c1C2=O)C[C@@](O)(C(=O)CO)C[C@@H]3O[C@H]1C[C@H](N)[C@H](O)[C@H](C)O1 [doxorubicin, Doxorubicin hydrochloride]
D10 (STSA-1 cells; STSA-1, with 30 µM SQAP): 4.66 nM
D10 (STSA-1 cells; STSA-1, without SQAP): 8.11 nM
sensitization of chemotherapeutic agent by SQAP (CML-6M and STSA-1 cells): most dramatic sensitization
D10 (CML-6M cells; with 30 µM SQAP): 8.94 nM
D10 (CML-6M cells; without SQAP): 18.0 nM

O=C1c2c(O)ccc(O)c2C(=O)c2c(NCCNCCO)ccc(NCCNCCO)c21 [Mitoxantrone, Mitoxantrone dihydrochloride]
sensitization of chemotherapeutic agent by SQAP (CML-6M and STSA-1 cells): significant sensitization

N.N.O=C([O-])C1(C(=O)[O-])CCC1.[Pt+2] [carboplatin]
sensitization of chemotherapeutic agent by SQAP (CML-6M and STSA-1 cells): significant sensitization
